Where a SMILES comes first, the peptide text is derived from it. Bridges are numbered along the chain shown (N, C = ends). [ ]: non-standard residue; d: D form. The star is where a group is joined. X1 = O=C(O)CCCCCCCCCCCCCCCCC(=O)N[C@@H](CCC(=O)NCCOCCOCCOCCOCCOCCOCCOCCOCCOCCOCCOCCn1cc(C*)nn1)C(=O)O; Phe(4-COOH) = N[C@@H](Cc1ccc(C(=O)O)cc1)C(=O)O; Bip = N[C@@H](Cc1ccc(-c2ccccc2)cc1)C(=O)O; Phe(3-Me) = Cc1cccc(C[C@H](N)C(=O)O)c1; Cha = N[C@@H](CC1CCCCC1)C(=O)O; Carboxymethyl = O=C(O)C*; Nle = CCCC[C@H](N)C(=O)O; Orn = NCCC[C@H](N)C(=O)O; Dab = NCC[C@H](N)C(=O)O; Nva = CCC[C@H](N)C(=O)O; Abu = CC[C@H](N)C(=O)O; Dap = NC[C@H](N)C(=O)O; AEEA = NCCOCCOCC(=O)O

As usually defined, the IC50 is the concentration that inhibits the measured activity by half.

T1 sequence (Q15116 25-288): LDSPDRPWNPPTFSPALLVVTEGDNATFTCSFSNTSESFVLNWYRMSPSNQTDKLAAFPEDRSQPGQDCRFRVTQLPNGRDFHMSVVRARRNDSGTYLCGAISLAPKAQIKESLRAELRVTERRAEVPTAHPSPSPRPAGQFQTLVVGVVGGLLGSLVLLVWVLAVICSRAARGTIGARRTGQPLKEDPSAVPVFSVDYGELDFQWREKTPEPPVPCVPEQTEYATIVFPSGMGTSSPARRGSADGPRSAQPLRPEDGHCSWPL

This assay has as its target T1, human PD-1 (Jurkat-PD-1 cells; binding of PE-labeled human PD-L1-Ig) (Homo sapiens, UniProt Q15116).
T1 construct: expressed in transfected cells; host or cells: Jurkat (Jurkat-PD-1 / Jurkat-hPD-1)
Nature of the assay: Jurkat-PD-1 Cell Binding High-Content Screening Assay. Particulars: Jurkat cell line over-expressing human PD-1; compound 2 h at 37° C., then PE-labeled PD-L1-Ig 20 nM final, 1 hour; read-out: Jurkat hPD1 PDL1 IC50. How it is done: The ability of the compounds of formula (I) to bind to PD-1 was investigated using a Jurkat-PD-1 Cell Binding High-Content Screening Assay.
Phycoerythrin (PE) was covalently linked to the Ig epitope tag of human PD-L1-Ig and fluorescently-labeled PD-L1-Ig was used for binding studies with a Jurkat cell line over-expressing human PD-1 (Jurkat-PD-1). Briefly, 8×10^3 Jurkat-hPD-1 cells were seeded into 384 well plates in 20 μl of DIVEM supplemented with 10% fetal calf serum. 100 nl of compound was added to cells followed by incubation at 37° C. for 2 h. Then, 5 μl of PE-labeled PD-L1-Ig (20 nM final), diluted in DiVEM supplemented with 10 fetal calf serum. After 1 hour incubation, cells were fixed with […] in dPBS containing 10 µg/mL Hoechst 33342 and then washed 3× in 100 μl dPB S. Data was collected and processed using a Cell Insight NXT High Content Imager and associated software.
For `CCCC[C@@H]1NC(=O)CSC[C@@H](C(=O)N[C@@H](CCN)C(N)=O)NC(=O)[C@H](CCC(=O)O)NC(=O)[C@H](C(C)C)NC(=O)[C@H](CC2CCCCC2)NC(=O)[C@H](CCN)NC(=O)[C@@H](CC(C)C)NC(=O)[C@H](CCCN)NC(=O)[C@H](Cc2ccc(OCc3cn(CCOCCOCCOCCOCCOCCOCCOCCOCCOCCOCCOCCNC(=O)CC[C@H](NC(=O)CCCCCCCCCCCCCCCCC(=O)O)C(=O)O)nn3)cc2)NC(=O)[C@H](Cc2ccc(-c3ccccc3)cc2)NC(=O)[C@H](Cc2ccc(OCC(=O)O)cc2)NC(=O)[C@H](Cc2cccc(C)c2)NC(=O)[C@H](CC(=O)O)NC(=O)[C@H](Cc2ccc(OCC(=O)O)cc2)NC1=O` [Compound 1024] ({CH2CO}-[Nle]Y(Carboxymethyl)D[Phe(3-Me)]Y(Carboxymethyl)[Bip]Y(X1)[Orn][dL][Dab][Cha]VEC[Dab]-NH2; thioether N-14), the IC50 amounted to 400 nM.
With `Cc1cccc(C[C@@H]2NC(=O)[C@H](CC(=O)O)NC(=O)[C@H](Cc3ccc(OCC(=O)O)cc3)NC(=O)[C@H](CCCNC(=N)N)NC(=O)CSC[C@@H](C(=O)N[C@@H](CCN)C(N)=O)NC(=O)[C@H](CCC(=O)O)NC(=O)[C@H](C(C)C)NC(=O)[C@H](CC3CCCCC3)NC(=O)[C@H](CCN)NC(=O)[C@@H](CC(C)C)NC(=O)[C@H](CCCN)NC(=O)[C@H](Cc3ccc(OCc4cn(CCOCCOCCOCCOCCOCCOCCOCCOCCOCCOCCOCCNC(=O)CC[C@H](NC(=O)CCCCCCCCCCCCCCCCC(=O)O)C(=O)O)nn4)cc3)NC(=O)[C@H](Cc3ccc(-c4ccccc4)cc3)NC(=O)[C@H](Cc3ccc(OCC(=O)O)cc3)NC2=O)c1` [Compound 1002] ({CH2CO}-RY(Carboxymethyl)D[Phe(3-Me)]Y(Carboxymethyl)[Bip]Y(X1)[Orn][dL][Dab][Cha]VEC[Dab]-NH2; thioether N-14) the figure was 140 nM.
The same measure for `Cc1cccc(C[C@@H]2NC(=O)[C@H](CC(=O)O)NC(=O)[C@H](Cc3ccc(OCC(=O)O)cc3)NC(=O)[C@H](Cc3c[nH]cn3)NC(=O)CSC[C@@H](C(=O)N[C@@H](CCN)C(N)=O)NC(=O)[C@H](Cc3ccc(OCc4cn(CCOCCOCCOCCOCCOCCOCCOCCOCCOCCOCCOCCNC(=O)CC[C@H](NC(=O)CCCCCCCCCCCCCCCCC(=O)O)C(=O)O)nn4)cc3)NC(=O)[C@H](C(C)C)NC(=O)[C@H](CC3CCCCC3)NC(=O)[C@H](CCN)NC(=O)[C@@H](CC(C)C)NC(=O)[C@H](CCCN)NC(=O)[C@H](Cc3ccc(OCC(=O)O)cc3)NC(=O)[C@H](Cc3ccc(-c4ccccc4)cc3)NC(=O)[C@H](Cc3ccc(OCC(=O)O)cc3)NC2=O)c1` [Compound 1015] ({CH2CO}-HY(Carboxymethyl)D[Phe(3-Me)]Y(Carboxymethyl)[Bip]Y(Carboxymethyl)[Orn][dL][Dab][Cha]VY(X1)C[Dab]-NH2; thioether N-14): 100 nM.
With `Cc1cccc(C[C@@H]2NC(=O)[C@H](CC(=O)O)NC(=O)[C@H](Cc3ccc(OCC(=O)O)cc3)NC(=O)[C@H](Cc3c[nH]cn3)NC(=O)CSC[C@@H](C(=O)N[C@@H](CCN)C(N)=O)NC(=O)[C@H](CCC(=O)O)NC(=O)[C@H](C(C)C)NC(=O)[C@H](CC3CCCCC3)NC(=O)[C@H](CCN)NC(=O)[C@@H](CC(C)C)NC(=O)[C@H](CCCN)NC(=O)[C@H](Cc3ccc(OCC(=O)O)cc3)NC(=O)[C@H](Cc3ccc(-c4ccccc4)cc3)NC(=O)[C@H](Cc3ccc(OCc4cn(CCOCCOCCOCCOCCOCCOCCOCCOCCOCCOCCOCCNC(=O)CC[C@H](NC(=O)CCCCCCCCCCCCCCCCC(=O)O)C(=O)O)nn4)cc3)NC2=O)c1` [Compound 1006] ({CH2CO}-HY(Carboxymethyl)D[Phe(3-Me)]Y(X1)[Bip]Y(Carboxymethyl)[Orn][dL][Dab][Cha]VEC[Dab]-NH2; thioether N-14) the figure was 55 nM.
Regarding `Cc1cccc(C[C@@H]2NC(=O)[C@H](CC(=O)O)NC(=O)[C@H](Cc3ccc(OCC(=O)O)cc3)NC(=O)[C@H](CCCNC(=N)N)NC(=O)CSC[C@@H](C(=O)N[C@@H](CCN)C(N)=O)NC(=O)[C@H](Cc3ccc(OCc4cn(CCOCCOCCOCCOCCOCCOCCOCCOCCOCCOCCOCCNC(=O)CC[C@H](NC(=O)CCCCCCCCCCCCCCCCC(=O)O)C(=O)O)nn4)cc3)NC(=O)[C@H](C(C)C)NC(=O)[C@H](CC3CCCCC3)NC(=O)[C@H](CCN)NC(=O)[C@@H](CC(C)C)NC(=O)[C@H](CCCN)NC(=O)[C@H](Cc3ccc(OCC(=O)O)cc3)NC(=O)[C@H](Cc3ccc(-c4ccccc4)cc3)NC(=O)[C@H](Cc3ccc(OCC(=O)O)cc3)NC2=O)c1` [Compound 1014] ({CH2CO}-RY(Carboxymethyl)D[Phe(3-Me)]Y(Carboxymethyl)[Bip]Y(Carboxymethyl)[Orn][dL][Dab][Cha]VY(X1)C[Dab]-NH2; thioether N-14), the IC50 came to 73 nM.
For the molecule `CCCC[C@@H]1NC(=O)CSC[C@@H](C(=O)N[C@@H](CCN)C(N)=O)NC(=O)[C@H](CCC(=O)O)NC(=O)[C@H](C(C)C)NC(=O)[C@H](CC2CCCCC2)NC(=O)[C@H](CCN)NC(=O)[C@@H](CC(C)C)NC(=O)[C@H](CCCN)NC(=O)[C@H](Cc2ccc(OCC(=O)O)cc2)NC(=O)[C@H](Cc2ccc(-c3ccccc3)cc2)NC(=O)[C@H](Cc2ccc(OCc3cn(CCOCCOCCOCCOCCOCCOCCOCCOCCOCCOCCOCCNC(=O)CC[C@H](NC(=O)CCCCCCCCCCCCCCCCC(=O)O)C(=O)O)nn3)cc2)NC(=O)[C@H](Cc2cccc(C)c2)NC(=O)[C@H](CC(=O)O)NC(=O)[C@H](Cc2ccc(OCC(=O)O)cc2)NC1=O` [Compound 1016] ({CH2CO}-[Nle]Y(Carboxymethyl)D[Phe(3-Me)]Y(X1)[Bip]Y(Carboxymethyl)[Orn][dL][Dab][Cha]VEC[Dab]-NH2; thioether N-14), the IC50 came to 100 nM.
The same measure for `Cc1cccc(C[C@@H]2NC(=O)[C@H](CC(=O)O)NC(=O)[C@H](Cc3ccc(C(=O)O)cc3)NC(=O)[C@H]([C@@H](C)O)NC(=O)CSC[C@@H](C(=O)N[C@@H](CCN)C(N)=O)NC(=O)[C@H](CCC(=O)O)NC(=O)[C@H](C(C)C)NC(=O)[C@H](CC3CCCCC3)NC(=O)[C@H](CCN)NC(=O)[C@@H](CC(C)C)NC(=O)[C@H](CCCN)NC(=O)[C@H](Cc3ccc(C(=O)O)cc3)NC(=O)[C@H](Cc3ccc(-c4ccccc4)cc3)NC(=O)[C@H](Cc3ccc(OCc4cn(CCOCCOCCOCCOCCOCCOCCOCCOCCOCCOCCOCCNC(=O)CC[C@H](NC(=O)CCCCCCCCCCCCCCCCC(=O)O)C(=O)O)nn4)cc3)NC2=O)c1` [Compound 1023] ({CH2CO}-T[Phe(4-COOH)]D[Phe(3-Me)]Y(X1)[Bip][Phe(4-COOH)][Orn][dL][Dab][Cha]VEC[Dab]-NH2; thioether N-14): 99 nM.
Regarding `CC[C@@H]1NC(=O)CSC[C@@H](C(=O)N[C@@H](CCN)C(N)=O)NC(=O)[C@H](CCC(=O)O)NC(=O)[C@H](C(C)C)NC(=O)[C@H](CC2CCCCC2)NC(=O)[C@H](CCN)NC(=O)[C@@H](CC(C)C)NC(=O)[C@H](CCCN)NC(=O)[C@H](Cc2ccc(C(=O)O)cc2)NC(=O)[C@H](Cc2ccc(-c3ccccc3)cc2)NC(=O)[C@H](Cc2ccc(OCc3cn(CCOCCOCCOCCOCCOCCOCCOCCOCCOCCOCCOCCNC(=O)CC[C@H](NC(=O)CCCCCCCCCCCCCCCCC(=O)O)C(=O)O)nn3)cc2)NC(=O)[C@H](Cc2cccc(C)c2)NC(=O)[C@H](CC(=O)O)NC(=O)[C@H](Cc2ccc(C(=O)O)cc2)NC1=O` [Compound 1021] ({CH2CO}-[Abu][Phe(4-COOH)]D[Phe(3-Me)]Y(X1)[Bip][Phe(4-COOH)][Orn][dL][Dab][Cha]VEC[Dab]-NH2; thioether N-14), the IC50 was 95 nM.
As to `Cc1cccc(C[C@@H]2NC(=O)[C@H](CC(=O)O)NC(=O)[C@H](Cc3ccc(OCC(=O)O)cc3)NC(=O)[C@H](CN)NC(=O)CSC[C@@H](C(=O)N[C@@H](CCN)C(=O)NCCOCCOCC(N)=O)NC(=O)[C@H]([C@@H](C)O)NC(=O)[C@H](C(C)C)NC(=O)[C@H](CC3CCCCC3)NC(=O)[C@H](CCN)NC(=O)[C@@H](CC(C)C)NC(=O)[C@H](CCCN)NC(=O)[C@H](COCc3cn(CCOCCOCCOCCOCCOCCOCCOCCOCCOCCOCCOCCNC(=O)CC[C@H](NC(=O)CCCCCCCCCCCCCCCCC(=O)O)C(=O)O)nn3)NC(=O)[C@H](Cc3ccc(-c4ccccc4)cc3)NC(=O)[C@H](Cc3ccc(OCC(=O)O)cc3)NC2=O)c1` [Compound 1042] ({CH2CO}-[Dap]Y(Carboxymethyl)D[Phe(3-Me)]Y(Carboxymethyl)[Bip]S(X1)[Orn][dL][Dab][Cha]VTC[Dab][AEEA]-NH2; thioether N-14), the IC50 was 220 nM.
The same measure for `CCC[C@@H]1NC(=O)CSC[C@@H](C(=O)N[C@@H](CCN)C(N)=O)NC(=O)[C@H](CCC(=O)O)NC(=O)[C@H](C(C)C)NC(=O)[C@H](CC2CCCCC2)NC(=O)[C@H](CCN)NC(=O)[C@@H](CC(C)C)NC(=O)[C@H](CCCN)NC(=O)[C@H](Cc2ccc(OCC(=O)O)cc2)NC(=O)[C@H](Cc2ccc(-c3ccccc3)cc2)NC(=O)[C@H](Cc2ccc(OCc3cn(CCOCCOCCOCCOCCOCCOCCOCCOCCOCCOCCOCCNC(=O)CC[C@H](NC(=O)CCCCCCCCCCCCCCCCC(=O)O)C(=O)O)nn3)cc2)NC(=O)[C@H](Cc2cccc(C)c2)NC(=O)[C@H](CC(=O)O)NC(=O)[C@H](Cc2ccc(OCC(=O)O)cc2)NC1=O` [Compound 1018] ({CH2CO}-[Nva]Y(Carboxymethyl)D[Phe(3-Me)]Y(X1)[Bip]Y(Carboxymethyl)[Orn][dL][Dab][Cha]VEC[Dab]-NH2; thioether N-14): 110 nM.

The values above are taken from patent publication US20250250299A1, “MACROCYCLIC IMMUNOMODULATORS” (Bristol-Myers Squibb Company, priority 2022, published 2025).
